{"source": "patent US11040976B2", "about": "“Substrate selective inhibitors of insulin-degrading enzyme (IDE) and uses thereof” (President and Fellows of Harvard College, priority 2015, dated 2021)", "format_in_all_cases": "biochemical", "key": {"[1]": {"system": "human IDE Val360Gln and Tyr314Phe", "experiment": "Activity assay of mutant human IDE variants Val360Gln and Tyr314Phe with IDE inhibitors", "description": "(§1) N-His6-tagged human IDE42-1019 construct was introduced in the expression plasmid pTrcHis-A (Invitrogen) using primers for uracil-specific excision reactions (USER) by Taq (NEB) and Pfu polymerases (PfuTurbo CX®, Agilent), as described in more detail in Maianti et al. (Nature (2014), 511, 94-98), which is incorporated by reference herein. The IDE gene was amplified with the primers 5′-[…]-dU-[…] (SEQ ID NO: 26) and 5′-[…] G-dU-[…] (SEQ ID NO: 27) (underlined sequences represent overhangs, and italics highlight the PCR priming sequence). Similarly, the pTrcHis-A vector was amplified for USER cloning with the primers 5′-[…]-dU-[…] (SEQ ID NO: 28) and 5′-[…]-dU-[…] (SEQ ID NO: 29). Mutant IDE constructs were generated by amplifying the full vector construct with USER cloning primers introducing a mutant overhang (see Table E6).\n(§2) Recombinant His6-tagged proteins were purified by Ni(II)-affinity chromatography (IMAC sepharose beads, GE Healthcare®) according to the manufacturer's instructions. The cell pellets were re-suspended in pH 8.0 buffer containing 50 mM phosphate, 300 mM NaCl, 10 mM imidazole, 1% Triton X-100 and 1 mM tris(2-carboxyethyl)phosphine hydrochloride (TCEP), and were lysed by probe sonication for 4 minutes at <4° C., followed by clearing of cell debris by centrifugation at 10,000 g for 25 minutes at 4° C. […]"}, "[2]": {"system": "human IDE Ile362Gln and Gly362Gln", "experiment": "Activity assay of mutant human IDE variants Ile362Gln and Gly362Gln with IDE inhibitors", "description": "as §1, §2"}, "[3]": {"target": "T1, IDE, substrate amylin (fp) peptide (Homo sapiens, UniProt P14735)", "T1 sequence (P14735 1-1019)": "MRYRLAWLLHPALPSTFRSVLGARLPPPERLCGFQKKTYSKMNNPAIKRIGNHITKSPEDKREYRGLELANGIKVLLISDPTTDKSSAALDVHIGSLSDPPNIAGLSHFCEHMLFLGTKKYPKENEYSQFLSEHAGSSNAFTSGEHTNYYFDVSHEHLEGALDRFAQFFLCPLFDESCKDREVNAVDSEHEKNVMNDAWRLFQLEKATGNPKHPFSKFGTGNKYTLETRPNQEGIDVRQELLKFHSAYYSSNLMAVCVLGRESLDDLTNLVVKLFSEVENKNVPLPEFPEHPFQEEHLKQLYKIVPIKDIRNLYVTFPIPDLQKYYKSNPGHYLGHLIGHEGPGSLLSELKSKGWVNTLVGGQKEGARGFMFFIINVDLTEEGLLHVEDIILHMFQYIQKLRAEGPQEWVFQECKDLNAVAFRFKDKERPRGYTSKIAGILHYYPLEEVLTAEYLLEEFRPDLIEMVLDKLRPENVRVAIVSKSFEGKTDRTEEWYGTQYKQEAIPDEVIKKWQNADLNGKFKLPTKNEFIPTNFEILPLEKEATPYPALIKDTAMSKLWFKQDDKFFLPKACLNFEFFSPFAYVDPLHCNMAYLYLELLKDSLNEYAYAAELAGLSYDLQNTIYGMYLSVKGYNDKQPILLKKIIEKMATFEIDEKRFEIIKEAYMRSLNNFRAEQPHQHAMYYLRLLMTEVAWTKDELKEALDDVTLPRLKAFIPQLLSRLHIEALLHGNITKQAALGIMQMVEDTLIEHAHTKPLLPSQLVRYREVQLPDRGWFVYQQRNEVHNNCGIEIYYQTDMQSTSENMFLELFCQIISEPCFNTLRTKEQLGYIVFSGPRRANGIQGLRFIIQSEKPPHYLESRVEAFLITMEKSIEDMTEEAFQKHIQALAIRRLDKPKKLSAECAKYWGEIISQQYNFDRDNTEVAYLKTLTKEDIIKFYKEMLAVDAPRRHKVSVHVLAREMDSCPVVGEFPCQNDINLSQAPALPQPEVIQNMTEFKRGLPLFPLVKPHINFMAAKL", "experiment": "IDE concentration dependence profile with fluorogenic amylin analog", "details": "FIGS. 11B and 11C", "description": "In order to determine the behavior of the inhibitors with respect to amylin, a concentration dependence profile was measured for IDE in the presence of a specified concentration of inhibitor and a fluorogenic amylin analog. The amylin (fp) peptide sequence was KCNTATCATXRLANFLVHSSNNZGAILSSTNVGSNTY-NH2 (SEQ ID NO: 8). The residue marked as X is Lys-γN-anthrinilamide, and the residue marked as Z is 3-nitro-Tyr."}}, "data": [{"molecule": "Cc1cccc(-c2ccc([C@@H]3[C@@H](CO)N4CCCCN(S(=O)(=O)c5ccccc5C)C[C@@H]34)cc2)c1", "note": "[compound 297]", "values": [{"measurement": "effect of variants Val360Gln and Tyr314Phe on potency", "setting": "[1]", "result": "minor impacts on potency"}, {"measurement": "effect of mutations Ile362Gln and Gly362Gln on inhibition potency", "setting": "[2]", "result": "reduce the inhibition potency"}, {"measurement": "selectivity for inhibiting degradation of amylin over glucagon", "setting": "[3]; amylin (fp) curve compared with HTRF glucagon curve", "result": "selectivity for inhibiting degradation of amylin over degradation of glucagon"}, {"measurement": "selectivity for inhibiting degradation of insulin over amylin and glucagon", "setting": "[3]; amylin (fp) curve compared with HTRF insulin and glucagon curves", "result": "selectivity for inhibiting degradation of insulin over degradation of amylin and glucagon"}]}]}
